What is called EC50 is the concentration giving half of the maximal effect. The low end stands for a more potent agent, the high end for a less potent agent. The IC50 is the midpoint of a concentration-inhibition curve.

One assay concerns BHY cells. In words: BHY proliferation and cell viability assay (CTG). The assay is classed as cell-based. Particulars: BHY cell line. The protocol: BHY cells were trypsinised, counted and plated at the specified cell density in 200 μl of growth media in 96 well flat bottom tissue culture treated plates. The plated cells were incubated overnight at 37° C., 5% CO2 before being treated with compounds in triplicate for each assay point. 50 μl of the serially diluted compound was added to each well giving a final DMSO concentration of 0.5% per well and a total volume of 250 μl per well. The treated cells were incubated for 144 hours (6 days) at 37° C., 5% CO2. Following compound treatment, the remaining viable cells were detected using the Promega CellTiter-Glo 2.0 assay as follows: 150 μl of media was removed from each of the wells to be assayed and 100 μl of room temperature CellTiter-Glo 2.0 reagent was added. The plate was placed on an orbital shaker at 500 rpm at room temperature for 2 minutes, and then incubated without shaking for a further 10 minutes at room temperature. 150 μl of cell lysate was removed from each well and dispensed into a single well of a white opaque 96 well plate. Luminescence at 545 nm was read using a BMG CLARIOstar plate reader. The luminescent signal was directly proportional to number of viable cells, the percent of viable cells relative to the DMSO control was then calculated for each assay point. Percent viability relative to DMSO control was plotted against compound concentration and a curve fitted with non-linear regression in GraphPad
Prism software. EC50 and IC50 values are calculated using GraphPad Prism software as follows: For EC50 values, a non-constrained four-parameter logistic curve fit was used (Sigmoidal, 4PL, X is concentration). For Absolute IC50 values the baseline was constrained to Y=0 (Absolute IC50, X is concentration). Area Under the Curve (AUC): Prism computes area-under-the-curve by the trapezoidal method. The analysis sees a fitted curve as simply a series of connected XY points. Prism simply computes the area under the “curve” defined by connecting the points by straight lines. The units of the AUC are the units of the Y axis times units of the X axis.

The test system of another assay is NCI-H226 cells. In words: Proliferation and cell viability, CellTiter-Glo 2.0 (CTG) assay. The assay is classed as cell-based. Conditions: for IC50: H226-responder cell line, 144 hrs; for EC50: NCI-H226, H226-responder cell line (Table 5). The protocol:
Cell proliferation of a TEAD dependent NF2-null mesothelioma cell line, NCI-H226, and a TEAD-non-dependent mesothelioma cell line, NCI-H28 was assayed using two different protocols: • a) CellTiter-Glo 2.0 (Promega #G9243). The effect of the TEAD inhibitors disclosed herein on cell proliferation was determined in TEAD1-genetically dependent cell line NCI-H226 (responder cell line) and TEAD-independent cell lines (NCI-H23, HEK293T), as non-responder, negative control. Cells were seeded in 96-well plates (Thermo Scientific #167008) in growth media (RPMI-1640, Gibco #61870-010) for NCI-H226 and NCI-H23 or DMEM (Gibco #31966-021, HEK293T) with 10% Heat Inactivated Fetal Bovine Serum (Gibco 10500-064) at 800 (NCI-H226 and HEK-293T) or 2000 (NCI-H23) cells per well at 37° C., 5% CO2, humidified incubator; 24 hours later, fresh growth media containing test compound or DMSO vehicle was added and incubated with the cells for 144 hrs. TEAD inhibitor stocks were made at a 1000× fold excess in DMSO, and a dose response test compound dose range of 10,000 to 0.1 nM was used. Each treatment was carried out in triplicate. After 144 hrs of treatment, relative cell viability numbers were determined using the CellTiter-Glo 2.0 assay following the manufacturer's instructions. Test plates and CellTiter-Glo 2.0 reagent were allowed to equilibrate to room temperature. CellTiter-Glo 2.0 reagent was added at 1:1 reagent to media ratio to the 96-well cell plates, plates were placed on a plate shaker for 2 minutes and then incubated at room temperature for a further 10 minutes to allow complete cell lysis to occur. The mix was then transferred to white, 96-well luminometer assay plates (Greiner Bio One #655075). Luminescence was quantified using a CLARIOStar Plus multi-mode plate reader (BMG Labtech) in luminescence detection mode with the recommended settings (ultra-Glo pre-set: emission 545-50 nm with autofocus and enhanced dynamic range on). Relative cell density was expressed as a function of inhibitor concentration, with respect to DMSO-only control wells. Data where plotted using GraphPad Prism and IC50 values for the biological effect were calculated using the EC50 non-linear fit function using a sigmoidal, 4-parameter logistic, least squares fit with no constraints. • b) Cell Titer One (Promega, #G3582). The effect of the TEAD inhibitors disclosed herein on cell proliferation was also determined using the Promega Substrate Cell Titer Aqueous One Solution Reagent. The TEAD inhibitors were evaluated for the effects on cell proliferation responder (H226) and non-responder negative control cancer cell lines (CAMA1, H28), as well as non-transformed normal human cells (HUVEC, NHDF). Dissociated cells were resuspend in media (depending on cell line, either in DMEM, RPMI, or EMEM all with 10% FBS, with gentamicin as an antibiotic). Cells were seeded at 100 μL/well at 750 cells per well in 96-well plates and allowed to settle and attach. After an incubation of 24 hrs (37° C., 5% CO2, humidified incubator), 100 μL of test compound-containing media was added. A dilution series of 2000× concentrated stock of test compounds was prepared in DMSO, for final concentrations from 0.1 to 10,000 nM. After addition of test compound-containing media, cells were incubated for 6 days at 37° C., 5% CO2, humidified incubators). To measure cell density, 20 μL of Promega Substrate Cell Titer 96 Aqueous One Solution Reagent (Promega, #G3582) to each well was added according to the manufacturer's instructions. Plates were incubated at 37° C. for usually 3-8 hrs, to reach in the control cells (without compound) an OD of 1.5 at 490 nm. The OD was measured using Vmax [Molecular Devices] spectrophotometer plate reader. Media only-wells were used as background controls and cell densities normalized to DMSO vehicle control. ECs were taken as the concentration achieving 50% of maximal growth inhibition.
For orientation: In ATP-based viability assays light output follows the ATP content of the culture.

On to `C[C@H](NC(=O)c1cnc2c(C3=CC[C@@H](C(F)(F)F)CC3)cccc2c1)c1ncco1` (single isomer, unassigned) [Compound 19, N-(1-(oxazol-2-yl)ethyl)-8-(4-(trifluoromethyl)cyclohex-1-en-1-yl)quinoline-3-carboxamide], for which the concentration giving a half-maximal response (EC50) in the assay with BHY cells (144 hours) and in the assay on NCI-H226 cells (Homo sapiens) was below 200 nM in each case. Also, the IC50 in the assay with NCI-H226 cells (Homo sapiens, NCI-H226, 144 h) is below 200 nM.
`C[C@H](NC(=O)c1cnc2c(C3=CC[C@@H](C(F)(F)F)CC3)cccc2c1)c1ncco1` (single isomer, unassigned) [Compound 20, N-(1-(oxazol-2-yl)ethyl)-8-(4-(trifluoromethyl)cyclohex-1-en-1-yl)quinoline-3-carboxamide] had an EC50 in the assay on BHY cells (144 h) below 200 nM. In the assay on NCI-H226 cells, this compound displayed an IC50 below 200 nM.
On to `FC(F)(F)c1ccc(CN2CCC(C3CC(Br)=NO3)CC2)cc1` (stereo not drawn) [Compound 1-2, reference compound], for which the EC50 with BHY cells (144 h) is above 1000 nM; in the assay with NCI-H226 cells (Homo sapiens), below 200 nM.
For the compound `C=CC(=O)Nc1ccc(C)c(Oc2ccc(Cl)cc2)c1` [Compound 1-3, reference compound], the EC50 in the assay with BHY cells (144 h) and in the assay with NCI-H226 cells (Homo sapiens) was below 200 nM throughout.
Compound `C[C@H](NC(=O)c1cnc2c(C3=CCC(C(F)(F)F)CC3)cccc2c1)c1ccccn1` (stereo partly drawn) [Compound 2, N—((S)-1-(pyridin-2-yl)ethyl)-8-(4-(trifluoromethyl)cyclohex-1-en-1-yl)quinoline-3-carboxamide] displayed an IC50 in the assay with NCI-H226 cells (Homo sapiens, NCI-H226, 144 h) below 200 nM.
For the compound `C[C@H](CO)NC(=O)c1cnc2c(C3=CCC(C(F)(F)F)CC3)cccc2c1` (stereo partly drawn) [Compound 7, N—((R)-1-hydroxypropan-2-yl)-8-(4-(trifluoromethyl)cyclohex-1-en-1-yl)quinoline-3-carboxamide], the EC50 in the assay with BHY cells (144 h) and in the assay on NCI-H226 cells (Homo sapiens) was below 200 nM each time. The IC50 in the assay with NCI-H226 cells (Homo sapiens, NCI-H226, 144 h) was below 200 nM.
`O=C(NCc1ncco1)c1cnc2c(C3=CCC(C(F)(F)F)CC3)cccc2c1` (stereo not drawn) [Compound 11, N-(oxazol-2-ylmethyl)-8-(4-(trifluoromethyl)cyclohex-1-en-1-yl)quinoline-3-carboxamide] registered an IC50 in the assay with NCI-H226 cells (Homo sapiens, NCI-H226, 144 h) below 200 nM. In the assay on NCI-H226 cells (Homo sapiens), this compound gave an EC50 below 200 nM.
With `O=C(NCc1ccn[nH]1)c1cnc2c(C3=CCC(C(F)(F)F)CC3)cccc2c1` (stereo not drawn) [Compound 47, N-((1H-pyrazol-5-yl)methyl)-8-(4-(trifluoromethyl)cyclohex-1-en-1-yl)quinoline-3-carboxamide], the EC50 in the assay on BHY cells (144 h) and with NCI-H226 cells (Homo sapiens) was below 200 nM throughout.
With `COC[C@H](CO)NC(=O)c1cnc2c(C3=CCC(C(F)(F)F)CC3)cccc2c1` (stereo partly drawn) [Compound 62, N—((S)-1-hydroxy-3-methoxypropan-2-yl)-8-(4-(trifluoromethyl)cyclohex-1-en-1-yl)quinoline-3-carboxamide], the EC50 in the assay with BHY cells (144 h) and with NCI-H226 cells (Homo sapiens) was below 200 nM throughout.
In the case of `COc1cc(C2=CCC(C(F)(F)F)CC2)c2ncc(C(=O)N[C@H](C)c3ncco3)cc2c1` (stereo partly drawn) [Compound 109, 6-methoxy-N—((R)-1-(oxazol-2-yl)ethyl)-8-(4-(trifluoromethyl)cyclohex-1-en-1-yl)quinoline-3-carboxamide], the EC50 with BHY cells (144 h) and with NCI-H226 cells (Homo sapiens) was below 200 nM in each case.
In the assay on NCI-H226 cells (Homo sapiens), `COc1cc(C2=CCC(C(F)(F)F)CC2)c2ncc(C(=O)N[C@H](C)CO)cc2c1` (stereo partly drawn) [Compound 110, N—((R)-1-hydroxypropan-2-yl)-6-methoxy-8-(4-(trifluoromethyl)cyclohex-1-en-1-yl)quinoline-3-carboxamide] showed an EC50 below 200 nM.
`C[C@H](CO)NC(=O)c1cnc2c(C3=CCC4(CC3)CC(F)(F)C4)cccc2c1` [Compound 165, (R)-8-(2,2-difluorospiro[3.5]non-6-en-7-yl)-N-(1-hydroxypropan-2-yl)quinoline-3-carboxamide] came in with an EC50 in the assay on NCI-H226 cells (Homo sapiens) below 200 nM.
Still for that read-out and setting: under `C[C@@H](NC(=O)c1cnc2c(C3=CCC4(CC3)CC4)cccc2c1)c1ncco1` [Compound 166, (R)—N-(1-(oxazol-2-yl)ethyl)-8-(spiro[2.5]oct-5-en-6-yl)quinoline-3-carboxamide] stands below 200 nM.

The record behind these values is US20250223306A1, “TEAD INHIBITORS AND METHODS OF USE” (Sporos BioDiscovery, Inc., priority 2022, published 2025).
